Where a name gives a salt, the structure may show the parent alone.

The experiment has as its system T1, primary mouse cortical neurons.
T1 construct: primary cortical neurons, DIV 10
Put plainly: cells. Further details: Protection from NMDA-induced (30 uM, 10 min) neuronal death; Hoechst nuclear morphology by automated microscopy. The following applies: Cortical neurone, 20 h, read-out: % inhibition, inhibition of NMDA-induced cell death (protection score), 30 min pre-treatment. In short, it runs like this: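 On DIV 10, primary mouse cortical neurons were given compound at 10 μM for 30 min at 37 °C, then 30 μM NMDA for 10 min, washed, and kept 20 h with compound. Dead cells were scored by nuclear morphology, and % protection was derived from survival relative to vehicle + NMDA and untreated controls.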

A word on the inhibition: it is the drop in the measured response relative to a control, in per cent. In the case of `O=c1cc(-c2ccccc2)oc2cc(O)c(O)c(O)c12` [Baicalein], the inhibition at 10 µM is -2.71%.
Turning to `O=C1Nc2ccccc2/C1=C1/Nc2ccccc2C1=O` [Indirubin], the inhibition at 10 µM amounted to 8.04%.
Then `CC(C)[N+]1(C)[C@@H]2CC[C@H]1CC(OC(=O)C(CO)c1ccccc1)C2` (some centres unmarked) [Ipratropium bromide], with 9.81%; and `COc1cc(CNC(=O)CCCC/C=C/C(C)C)ccc1O` [Capsaicin], with -2.28%; and `COc1c(C)c2c(c(O)c1C/C=C(\C)CCC(=O)O)C(=O)OC2` [Mycophenolic (Mycophenolate)], with -10.2%.
As to `CC(=O)O[C@H]1C(=O)[C@@]2(C)[C@H]([C@H](OC(=O)c3ccccc3)[C@]3(O)C[C@H](OC(=O)[C@H](O)[C@@H](NC(=O)c4ccccc4)c4ccccc4)C(C)=C1C3(C)C)[C@]1(OC(C)=O)CO[C@@H]1C[C@@H]2O` [Paclitaxel (Taxol)], the inhibition at 10 µM is -12.8%.
As to `CCC(C)n1ncn(-c2ccc(N3CCN(c4ccc(OC[C@H]5CO[C@](Cn6cncn6)(c6ccc(Cl)cc6Cl)O5)cc4)CC3)cc2)c1=O` (mixture of isomers) [Itraconazole (Sporanox)], the inhibition at 10 µM amounted to 2.19%.
Turning to `CN(C)[C@@H]1C(=O)C(C(N)=O)=C(O)[C@@]2(O)C(=O)C3=C(O)c4c(O)cccc4[C@@](C)(O)[C@H]3[C@H](O)[C@@H]12` [Oxytetracycline (Terramycin)], the inhibition at 10 µM was found to be 2.79%.
`CC(C)NCC(O)c1ccc(O)c(O)c1` (centres unmarked) [Isoprenaline hydrochloride]: the inhibition at 10 µM is -0.7%.
Turning to `Nc1cc(C(Cl)=C(Cl)Cl)c(S(N)(=O)=O)cc1S(N)(=O)=O` [Clorsulon], the inhibition at 10 µM is -1.66%.
As to `C/C=C1\[C@H]2C=C(C)C[C@]1(N)c1ccc(=O)[nH]c1C2` [(-)-Huperzine A], the inhibition at 10 µM was -1.76%.
With `COC(=O)Nc1nc2cc(Sc3ccccc3)ccc2[nH]1` [Fenbendazole (Panacur)], the inhibition at 10 µM is -8.52%.
As for `COc1ccc2cc1Oc1ccc(cc1)C[C@H]1c3cc(c(OC)cc3CCN1C)Oc1c(OC)c(OC)cc3c1[C@H](C2)N(C)CC3` [Tetrandrine (Fanchinine)], the inhibition at 10 µM worked out at 9.82%.
Then `Cc1cn([C@H]2C=C[C@@H](CO)O2)c(=O)[nH]c1=O` [Stavudine], with 6.33%; and `CO[C@@H]1[C@@H](OC(N)=O)[C@@H](O)[C@H](Oc2ccc3c(O)c(NC(=O)c4ccc(O)c(CC=C(C)C)c4)c(=O)oc3c2C)OC1(C)C` [Novobiocin sodium (Albamycin)], with -0.631%.
In the case of `CC1(C)[C@@H](O)CC[C@]2(C)[C@H]3C(=O)C=C4[C@@H]5C[C@@](C)(C(=O)O)CC[C@]5(C)CC[C@@]4(C)[C@]3(C)CC[C@@H]12` [Enoxolone (Glycyrrhetin)], the inhibition at 10 µM was -0.00685%.
For `N[C@@H](CSCCCO)C(=O)O` [Fudosteine], the inhibition at 10 µM turned out to be 7.72%.
Regarding `Nc1ncnc2c1ncn2[C@@H]1O[C@H](CO)[C@@H](O)[C@@H]1O` [Vidarabine (Vira-A)], the inhibition at 10 µM is 20.1%.
Take `O=C(O)c1cc(=O)[nH]c(=O)[nH]1` [Orotic acid (6-Carboxyuracil)]: the inhibition at 10 µM is -3.32%.
In the case of `COc1ccc([C@H]2CNC(=O)C2)cc1OC1CCCC1` [S-(+)-Rolipram], the inhibition at 10 µM is -1.23%.
With `CC(c1cc2ccccc2s1)N(O)C(N)=O` (centres unmarked) [Zileuton], the inhibition at 10 µM was -10.2%.
For the compound `CCCCC(=O)N(Cc1ccc(-c2ccccc2-c2nn[nH]n2)cc1)[C@H](C(=O)O)C(C)C` [Valsartan (Diovan)], the inhibition at 10 µM was -0.714%.
In the case of `OC[C@@H](O)[C@@H](O)[C@H](O)[C@@H](O)CO` [Sorbitol (Glucitol)], the inhibition at 10 µM was found to be 3.24%.
In the case of `O=S(=O)(O)CCS` [Mesna (Uromitexan, Mesnex)], the inhibition at 10 µM was -0.811%.
Under `CC(C)=CCC[C@]1(C)C=Cc2c(O)c3c(c(CC=C(C)C)c2O1)O[C@]12C(=C[C@@H]4C[C@H]1C(C)(C)O[C@@]2(C/C=C(/C)C(=O)O)C4=O)C3=O` [Gambogic Acid] stands 14.8%; under `CC1(C)O[C@@H]2C[C@H]3[C@@H]4CCC5=CC(=O)C=C[C@]5(C)[C@@]4(F)[C@@H](O)C[C@]3(C)[C@]2(C(=O)CO)O1` [Triamcinolone acetonide], 59.8%; under `CCCCCCOC(=O)NC(=N)c1ccc(NCc2nc3cc(C(=O)N(CCC(=O)OCC)c4ccccn4)ccc3n2C)cc1` [BIBR-1048 (Dabigatran)], 0.466%.
Then `Cc1nc(-c2ccc(OCC(C)C)c(C#N)c2)sc1C(=O)O` [Febuxostat (Uloric)], with -0.186%; and `CN(C)CCc1c[nH]c2ccc(Cn3cncn3)cc12` [Rizatriptan Benzoate (Maxalt)], with 14.3%; and `C[C@@H]1CC[C@@]2(OC1)O[C@H]1C[C@H]3[C@@H]4CC=C5C[C@@H](O[C@@H]6O[C@H](CO)[C@@H](O[C@@H]7O[C@@H](C)[C@H](O)[C@@H](O)[C@H]7O)[C@H](O)[C@H]6O[C@@H]6O[C@@H](C)[C@H](O)[C@@H](O)[C@H]6O)CC[C@]5(C)[C@H]4CC[C@]3(C)[C@H]1[C@@H]2C` [Dioscin (Collettiside III)], with 32.2%.
With `CC[C@@]1(O)C(=O)OCc2c1cc1n(c2=O)Cc2cc3c(CN(C)C)c(O)ccc3nc2-1` [Topotecan HCl], the inhibition at 10 µM is -1.54%.
`COc1ccc2c(c1)c(CC(=O)O)c(C)n2C(=O)c1ccc(Cl)cc1` [Indomethacin (Indocid, Indocin)]: the inhibition at 10 µM turned out to be 3.41%.
Consider `CC(C)[C@@H](C)/C=C/[C@@H](C)[C@H]1CC[C@H]2C3=CC=C4C[C@@H](O)CC[C@]4(C)[C@H]3CC[C@]12C` [Ergosterol], for which the inhibition at 10 µM was -1.47%.
Regarding `CN1CCCC(n2nc(Cc3ccc(Cl)cc3)c3ccccc3c2=O)CC1` (centres unmarked) [Azelastine hydrochloride (Astelin)], the inhibition at 10 µM was -2.32%.
For `Cc1onc(-c2ccccc2Cl)c1C(=O)N[C@@H]1C(=O)N2[C@@H]1SC(C)(C)[C@@H]2C(=O)O` [Cloxacillin sodium (Cloxacap)], the inhibition at 10 µM came out at 0.144%.
Regarding `c1ccc2c(CC3=NCCN3)cccc2c1` [Naphazoline hydrochloride (Naphcon)], the inhibition at 10 µM is -0.842%.
`NS(=O)(=O)Cc1noc2ccccc12` [Zonisamide]: the inhibition at 10 µM is -5.91%.
Then `C[C@@H]1C[C@H]2[C@@H]3CCC4=CC(=O)C=C[C@]4(C)[C@@]3(F)[C@@H](O)C[C@]2(C)[C@@]1(O)C(=O)CO` [Dexamethasone], with -9.25%; and `C=C1C(=O)[C@]23[C@H](O)[C@H]1CC[C@H]2[C@@]12CO[C@]3(O)[C@@H](O)[C@@H]1C(C)(C)CC[C@@H]2O` [Oridonin (Isodonol)], with -2.85%; and `COc1cc(O)c2c(c1)C(=O)c1cc(C)cc(O)c1C2=O` [Rheochrysidin (Physcione)], with 18.7%.
Then `CC[N+](CC)(CC)CCOc1cccc(OCC[N+](CC)(CC)CC)c1OCC[N+](CC)(CC)CC` [Gallamine triethiodide (Flaxedil)], with -8.46%; and `C[C@H](O)[C@H](O)[C@@H](O)[C@@H](O)C=O` [L(+)-Rhamnose Monohydrate], with 0.562%; and `O=C1Cc2cc(CCN3CCN(c4nsc5ccccc45)CC3)c(Cl)cc2N1` [Ziprasidone hydrochloride], with 8.38%.
Under `COc1ccc2ccc(=O)oc2c1CC=C(C)C` [Osthole (Osthol)] stands -1.21%.

These data come from paper PMC7489219 (Molecular Brain, 2020).
